Source: US10828315B2 (Madrigal Pharmaceuticals, Inc., priority 2013, dated 2020)
Like-named read-outs stand apart in the source and are kept apart here.

Tests used:
[1] = system: human urinary bladder cancer cell line SW780; test: Cytotoxicity assay (CellTiter-Glo, 72 h), SW780; assay type: cell-based; conditions: read-out: Cytotoxicity (IC50, nM) SW-780
Protocol: (§1) Cytotoxicity of SDC-TRAP molecules was determined in three cancer cell lines. […] 80 μL of CellTiter-Glo was added to each well, followed by room temperature incubation in the dark for 15 minutes. Cell was determined by luminescence. IC50 was calculated using XLfit™ software.

[2] = system: human breast cancer cell line BT-474; test: Cytotoxicity assay (CellTiter-Glo, 72 h), BT-474; assay type: cell-based; conditions: read-out: Cytotoxicity (IC50, nM) BT-474
Protocol: as §1

[3] = system: HER2; test: HER2 degradation assay with BT-474 cell line (Example 12, FACS); assay type: cell-based, human
[4] = system: human urinary bladder cancer cell line RT-112; test: Cytotoxicity assay (CellTiter-Glo, 72 h), RT-112; assay type: cell-based; conditions: read-out: Cytotoxicity (IC50, nM) RT-112
Protocol: as §1

[5] = Mouse plasma stability protocol, up to 1 h (Examples 16-18); conditions: for % Remaining (1 h): % Remaining of parent after 1 h incubation in mouse plasma at 37° C. (10 μM); for % Remaining (1 h, 37° C.): mouse plasma
Protocol: 150 ng/mL solution of SDC-TRAP-0002 in methanol was prepared using the internal standard spiking solution. This solution was used to precipitate all plasma samples in the study. 200 μL was pipetted into a 96 deepwell plate over dry ice. 10 μL of 1 mM stock in DMSO was added to a 1.5 mL microfuge tube, then 990 μL of plasma. Samples were mixed by vortex, then 50 μL of each sample was added in triplicate to a 96-well plate containing internal standard solution. This was designated the 0 hour time point sample. 250 μL of the remaining plasma sample was added to each of four 96 deepwell plates—one per time point. Samples were incubated at 37° C. with gentle shaking for 0.25, 0.5, and 1 hour. After each time point, one plate of each sample was removed from the shaker and placed on wet ice for approximately 2 minutes. 50 μL at plasma aliquots (in triplicate) were added to the deepwell plate containing internal standard solution. After the last time point was extracted, the 96 deepwell plate was vortexed, then centrifuged at 2-8° C. 150 μL of supernatant was collected and 25 μL at of water was added. Samples were mixed and analyzed by LC-MS/MS.
990 μL mouse plasma aliquots from a common stock were spiked with 10 μL of 1 mM stock of one of seven SDC-TRAP samples identified in the table below. Each sample was mixed and divided into 250 μL aliquots, each representing time points 0, 15 minutes, 30 minutes or 1 hour. At the prescribed time point, 3×50 μL samples were each mixed with 200 μL of methanol containing internal standard and held on dry ice until all time point samples were extracted. The samples collectively were vortex mixed for 1.5 minutes at 1500 rpm, then centrifuged at 4400 rpm for 10 minutes at 8° C.

[6] = Tissue Distribution Data for SDC-TRAP-0195
[7] = Artificial membrane permeability assay (PAMPA)
[8] = SDC-TRAP-0063 PK in male SD rats (slow IV bolus); assay type: in vivo; conditions: of monitored analyte
[9] = SDC-TRAP-0063 PK in male CD-1 mice (IV bolus); assay type: in vivo; conditions: of monitored analyte
[10] = dosed SDC-TRAP-0063 10 mpk slow IV bolus
[11] = dosed SDC-TRAP-0063 50 mpk slow IV bolus
[12] = dosed SDC-TRAP-0063 100 mpk slow IV bolus
[13] = dosed SDC-TRAP-0063 150 mpk slow IV bolus
[14] = dosed SDC-TRAP-0063 50 mpk IV bolus
[15] = dosed SDC-TRAP-0063 100 mpk IV bolus
[16] = dosed SDC-TRAP-0063 200 mpk IV bolus

Work on CC(C)c1cc(-c2nnc(O)n2-c2ccc(CN3CCN(C(=O)CCCc4nc5cc(N(CCCl)CCCl)ccc5n4C)CC3)cc2)c(O)cc1O [SDC-TRAP-0069, 4-(5-(bis (2-chloroethyl)amino)-1-methyl-1H-benzo[d]imidazol-2-yl)-1-(4-(4-(3-(2,4-dihydroxy-5-isopropylphenyl)-5-hydroxy-4H-1,2,4-triazol-4-yl)benzyl)piperazin-1-yl)butan-1-one] yielded an IC50 ([1]; SW780, 72 h) of 1340 nM, an IC50 ([2]; BT-474, 72 h) of 914 nM and an IC50 ([3]; BT-474 cells, overnight) of 1.23 µM. It also gave an IC50 ([4]; RT-112, 72 h) of 909 nM.

CC(C)c1cc(-c2nnc(O)n2-c2ccc3c(c2)CN(C(=O)c2ccc(CCc4c[nH]c5nc(N)[nH]c(=O)c45)cc2)C3)c(O)cc1O [SDC-TRAP-0093, 2-amino-5-(4-(5-(3-(2,4-dihydroxy-5-isopropylphenyl)-5-hydroxy-4H-1,2,4-triazol-4-yl)isoindoline-2-carbonyl)phenethyl)-3H-pyrrolo[2,3-d]pyrimidin-4(7H)-one] gave an IC50 ([1]; SW780, 72 hours) of over 10000 nM, an IC50 ([2]; BT-474, 72 hours) of 1540 nM and an IC50 ([4]; RT-112, 72 hours) of 1290 nM.

In the case of CCNC(=O)c1nnc(-c2cc(C(C)C)c(O)cc2O)n1-c1ccc(CN2CCC(C(=O)N3CCN(c4cc(C)c(OC(=O)Nc5cccc6c5CN(C5CCC(=O)NC5=O)C6=O)c(C)c4)CC3)CC2)cc1 (centres unmarked) [SDC-TRAP-0195, 4-(4-(1-(4-(3-(2,4-dihydroxy-5-isopropylphenyl)-5-(ethylcarbamoyl)-4H-1,2,4-triazol-4-yl)benzyl)piperidine-4-carbonyl)piperazin-1-yl)-2,6-dimethylphenyl (2-(2,6-dioxopiperidin-3-yl)-1-oxoisoindolin-4-yl)carbamate], the IC50 [3] is reported as 0.049 µM, the “% Remaining (1 h)” value [5] is reported as 98.4% and the “Plasma Conc.” value ([6]; Time (h) 0.083) is reported as 1220 µM. For the same molecule, the “Tumor Conc.” value ([6]; Time (h) 0.083) was 17.1 nmol/g of tissue, the “Tumor/Plasma Ratio” value ([6]; Time (h) 0.083) was 0.0140 and the “Plasma Conc.” value ([6]; Time (h) 1) was 211 µM. For the same molecule, the “Tumor Conc.” value ([6]; Time (h) 1) was 23.0 nmol/g of tissue, the “Tumor/Plasma Ratio” value ([6]; Time (h) 1) was 0.109 and the “Plasma Conc.” value ([6]; Time (h) 6) was 7.23 µM. The “Tumor Conc.” value ([6]; Time (h) 6) was 17.1 nmol/g of tissue, the “Tumor/Plasma Ratio” value ([6]; Time (h) 6) was 2.36 and the “Plasma Conc.” value ([6]; Time (h) 24) was 2.03 µM. For the same molecule, the “Tumor Conc.” value ([6]; Time (h) 24) was 11.2 nmol/g of tissue, the “Tumor/Plasma Ratio” value ([6]; Time (h) 24) was 5.50 and the “Plasma Conc.” value ([6]; Time (h) 48) was “BQL”. For the same molecule, the “Tumor Conc.” value ([6]; Time (h) 48) was 12.6 nmol/g of tissue and the “Mass Retention” value ([7]; incubation 5 h, first table) was 27.1%.

CCNC(=O)c1nnc(-c2cc(C(C)C)c(O)cc2O)n1-c1ccc(CN2CCC(C(=O)N3CCC(C(=O)N[C@H]4C[C@H](O[C@H]5C[C@](O)(C(=O)CO)Cc6c(O)c7c(c(O)c65)C(=O)c5c(OC)cccc5C7=O)O[C@@H](C)[C@H]4O)CC3)CC2)cc1 [SDC-TRAP-0198, 1-(1-(4-(3-(2,4-dihydroxy-5-isopropylphenyl)-5-(ethylcarbamoyl)-4H-1,2,4-triazol-4-yl)benzyl)piperidine-4-carbonyl)-N-((2S,3S,4S,6R)-3-hydroxy-2-methyl-6-(((1S,3S)-3,5, 12-trihydroxy-3-(2-hydroxyacetyl)-10-methoxy-6,11-dioxo-1,2,3,4,6,11-hexahydrotetracen-1-yl)oxy)tetrahydro-2H-pyran-4-yl)piperidine-4-carboxamide] gave an IC50 ([1]; SW780, 72 hours) of over 10000 nM, an IC50 ([2]; BT-474, 72 hours) of 786 nM and an IC50 ([3]; BT-474 cells, overnight) of over 10 µM. It also gave an IC50 ([4]; RT-112, 72 hours) of 297 nM.

For CCNC(=O)c1nnc(-c2cc(C(C)C)c(O)cc2O)n1-c1ccc2c(ccn2CCC2CCN(C(=O)Oc3ccc4nc5c(c(CC)c4c3)Cn3c-5cc4c(c3=O)COC(=O)[C@]4(O)CC)CC2)c1 [SDC-TRAP-0205, (S)-4,11-diethyl-4-hydroxy-3,14-dioxo-3,4,12,14-tetrahydro-1H-pyrano[3′,4′:6,7]indolizino[1,2-b]quinolin-9-yl 4-(2-(5-(3-(2,4-dihydroxy-5-isopropylphenyl)-5-(ethylcarbamoyl)-4H-1,2,4-triazol-4-yl)-1H-indol-1-yl)ethyl)piperidine-1-carboxylate], the IC50 [3] was 0.564 µM, the “% Remaining (1 h)” value [5] was 58.4% and the “% Remaining (1 h, 37° C.)” value [5] was 58.4%. For the same molecule, the “Mass Retention” value ([7]; same protocol, second table) was 10.9%.

With CCNC(=O)c1nnc(-c2cc(C(C)C)c(O)cc2O)n1-c1ccc2c(ccn2CCC2CCN(C(=O)O[C@]3(CC)C(=O)OCc4c3cc3n(c4=O)Cc4c-3nc3ccc(O)cc3c4CC)CC2)c1 [SDC-TRAP-0208, (S)-4,11-diethyl-9-hydroxy-3,14-dioxo-3,4,12,14-tetrahydro-1H-pyrano[3′,4′: 6,7]indolizino[1,2-b]quinolin-4-yl 4-(2-(5-(3-(2,4-dihydroxy-5-isopropylphenyl)-5-(ethylcarbamoyl)-4H-1,2,4-triazol-4-yl)-1H-indol-1-yl)ethyl)piperidine-1-carboxylate] the IC50 [3] was 0.48 µM, the “% Remaining (1 h)” value [5] was 86.1% and the “% Remaining (1 h, 37° C.)” value [5] was 86.1%. For the same molecule, the “Mass Retention” value ([7]; same protocol, second table) was 25.0%.

Work on COc1cccc2c1C(=O)c1c(O)c3c(c(O)c1C2=O)C[C@@](O)(/C(CO)=N/NC(=O)CCn1ccc2cc(-n4c(O)nnc4-c4cc(C(C)C)c(O)cc4O)ccc21)C[C@@H]3O[C@H]1C[C@H](N)[C@H](O)[C@H](C)O1 [SDC-TRAP-0219, (E)-N′-(1-((2S,4S)-4-(((2R,4S,5S,6S)-4-amino-5-hydroxy-6-methyltetrahydro-2H-pyran-2-yl)oxy)-2,5,12-trihydroxy-7-methoxy-6,11-dioxo-1,2,3,4,6,11-hexahydrotetracen-2-yl)-2-hydroxyethylidene)-3-(5-(3-(2,4-dihydroxy-5-isopropylphenyl)-5-hydroxy-4H-1,2,4-triazol-4-yl)-1H-indol-1-yl)propanehydrazide] yielded an IC50 ([1]; SW780, 72 hours) of over 10000 nM, an IC50 ([2]; BT-474, 72 hours) of over 10000 nM and an IC50 ([4]; RT-112, 72 hours) of 973 nM.

For CCc1c2c(nc3ccc(OC(=O)N4CCC(CCn5ccc6cc(-n7c(O)nnc7-c7cc(C(C)C)c(O)cc7O)ccc65)CC4)cc13)-c1cc3c(c(=O)n1C2)COC(=O)C3(O)CC (centres unmarked) [compound 0063], the AUCinf [8, 10] was 38.8 µM·h, the AUCt [8, 10] was 38.8 µM·h and the CL [8, 10] was 4.9 mL/min/kg. For the same molecule, the Cmax [8, 10] was 102 µM, the Tmax [8, 10] was 4.98 min and the Vss [8, 10] was 0.0590 L/kg. The Vz [8, 10] was 0.441 L/kg, the t1/2 [8, 10] was 60 min and the AUCinf [8, 11] was 687 µM·h. For the same molecule, the AUCt [8, 11] was 687 µM·h, the CL [8, 11] was 1.38 mL/min/kg and the Cmax [8, 11] was 659 µM. For the same molecule, the Tmax [8, 11] was 4.98 min, the Vss [8, 11] was 0.0640 L/kg and the Vz [8, 11] was 0.0924 L/kg. The t1/2 [8, 11] was 48 min, the AUCinf [8, 12] was 1786 µM·h and the AUCt [8, 12] was 1785 µM·h. For the same molecule, the CL [8, 12] was 1.08 mL/min/kg, the Cmax [8, 12] was 1210 µM and the Tmax [8, 12] was 4.98 min. For the same molecule, the Vss [8, 12] was 0.0654 L/kg, the Vz [8, 12] was 0.153 L/kg and the t1/2 [8, 12] was 96 min. It also gave an AUCinf [8, 13] of 5302 µM·h, an AUCt [8, 13] of 5302 µM·h and a CL [8, 13] of 0.547 mL/min/kg. The Cmax [8, 13] was 1900 µM, the Tmax [8, 13] was 30 min and the Vss [8, 13] was 0.0663 L/kg. For the same molecule, the Vz [8, 13] was 0.0855 L/kg, the t1/2 [8, 13] was 108 min and the AUCinf [9, 14] was 237 µM·h. It also gave an AUCt [9, 14] of 235 µM·h, a CL [9, 14] of 4 mL/min/kg and a Cmax [9, 14] of 414 µM. For the same molecule, the Tmax [9, 14] was 4.98 min, the Vss [9, 14] was 0.122 L/kg and the Vz [9, 14] was 0.659 L/kg. The t1/2 [9, 14] was 114 min, the AUCinf [9, 15] was 549 µM·h and the AUCt [9, 15] was 549 µM·h. The CL [9, 15] was 3.45 mL/min/kg, the Cmax [9, 15] was 799 µM and the Tmax [9, 15] was 4.98 min. It also gave a Vss [9, 15] of 0.241 L/kg, a Vz [9, 15] of 0.747 L/kg and a t1/2 [9, 15] of 150 min. For the same molecule, the AUCinf [9, 16] was 2884 µM·h, the AUCt [9, 16] was 2882 µM·h and the CL [9, 16] was 1.32 mL/min/kg. It also gave a Cmax [9, 16] of 1620 µM, a Tmax [9, 16] of 4.98 min and a Vss [9, 16] of 0.173 L/kg. The Vz [9, 16] was 0.307 L/kg and the t1/2 [9, 16] was 162 min.
